The test system of one experiment is T1, AeGE15.
T1 construct: gene aege; mature protein with N-terminal CBM1 and CE15 domain; native signal peptide (21 of 471 residues) removed; alpha-factor secretion signal, C-terminal His6 tag kept; Pichia pastoris X33
Briefly: HPLC of released cinnamyl alcohol (UV […] nm), Michaelis-Menten fit. Type of experiment: biochemical, Artolenzites elegans. To be noted: 50 °C, pH 5; substrate 0.2–5.0 mM; read-out: Kinetic parameters / KM.

The next experiment deals with T2, TlGE15.
T2 construct: gene tlge; mature protein with N-terminal CBM1 and CE15 domain; native signal peptide (21 of 474 residues) removed; alpha-factor secretion signal, C-terminal His6 tag kept; Pichia pastoris X33
Described as above. Type of experiment: biochemical, Trametes ljubarskyi. To be noted: 40 °C, pH 5; substrate 0.2–5.0 mM; read-out: Kinetic parameters / KM.

As for `O=C(OC/C=C/c1ccccc1)[C@H]1OC(O)[C@H](O)[C@@H](O)[C@@H]1O` (stereo partly drawn) [trans−3-phenyl-2-propen-1-yl D-glucopyranosyluronate], the Km was determined as 3.6 ± 0.6 mM in the experiment with AeGE15 and 3.2 ± 0.5 mM in the experiment on TlGE15.

Source of the values: publication PMC11948903, “Exploring the synergy between fungal CE15 glucuronoyl esterases and xylanases for lignocellulose saccharification” (Biotechnology for Biofuels and Bioproducts, 2025).
